Measured values as given in ChEMBL document CHEMBL1201862, “PubChem BioAssay data set” (2004).
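96-well plates; 48 h exposure; 5 concentrations. Endpoints by linear interpolation between flanking doses. Not reached: highest tested concentration assigned. Here, GI50 denotes the concentration required for 50% inhibition of growth.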 The source made the active and inactive calls. Rule as the data show it: active = GI50 up to about 1.1 µM and inactive = higher.

Assays:
Experiment in all cases: NCI tumour cell line growth inhibition, 48 h
A549 = test system: A549
CAKI-1 = test system: CAKI-1
COLO 205 = test system: COLO 205
DLD-1 = test system: DLD-1
DMS-114 = test system: DMS-114
DMS-273 = test system: DMS-273
HCC 2998 = test system: HCC 2998
HCT-116 = test system: HCT-116
HCT-15 = test system: HCT-15
HL-60 = test system: HL-60
HOP-18 = test system: HOP-18
HOP-62 = test system: HOP-62
HOP-92 = test system: HOP-92
HT-29 = test system: HT-29
IGROV-1 = test system: IGROV-1
KM-20L2 = test system: KM-20L2
KM12 = test system: KM12
LOX IMVI = test system: LOX IMVI
M19-MEL = test system: M19-MEL
MCF7 = test system: MCF7
NCI-H226 = test system: NCI-H226
NCI-H460 = test system: NCI-H460
NCI/ADR-RES = test system: NCI/ADR-RES
OVCAR-3 = test system: OVCAR-3
OVCAR-4 = test system: OVCAR-4
OVCAR-8 = test system: OVCAR-8
RPMI-8226 = test system: RPMI-8226
SF-268 = test system: SF-268
SF-295 = test system: SF-295
SF-539 = test system: SF-539
SK-MEL-2 = test system: SK-MEL-2
SK-MEL-5 = test system: SK-MEL-5
SK-OV-3 = test system: SK-OV-3
SN12C = test system: SN12C
SNB-19 = test system: SNB-19
SNB-75 = test system: SNB-75
SNB-78 = test system: SNB-78
SW-620 = test system: SW-620
UACC-62 = test system: UACC-62
UO-31 = test system: UO-31
A498 = test system: A498
CCRF-CEM = test system: CCRF-CEM
EKVX = test system: EKVX
K562 = test system: K562
MOLT-4 = test system: MOLT-4
Malme-3M = test system: Malme-3M
NCI-H23 = test system: NCI-H23
NCI-H522 = test system: NCI-H522
OVCAR-5 = test system: OVCAR-5
RXF 393 = test system: RXF 393
SK-MEL-28 = test system: SK-MEL-28
U-251 = test system: U-251
UACC-257 = test system: UACC-257
XF498 = test system: XF498
ACHN = test system: ACHN
BT-549 = test system: BT-549
DU-145 = test system: DU-145
PC-3 = test system: PC-3

In the case of `Nc1ccn(C2C=C(CO)C(O)C2O)c(=O)c1` (stereo unspecified), the GI50 (A549) is reported as > 625 µM (inactive), the GI50 (CAKI-1) is reported as > 625 µM (inactive) and the GI50 (COLO 205) is reported as > 625 µM (inactive). For the same compound, the GI50 (DLD-1) was > 62.5 µM (inactive), the GI50 (DMS-114) was > 625 µM (inactive) and the GI50 (DMS-273) was > 625 µM (inactive). The GI50 (HCC 2998) was > 625 µM (inactive), the GI50 (HCT-116) was > 625 µM (inactive) and the GI50 (HCT-15) was over 625 µM. The GI50 (HL-60) was > 625 µM (inactive), the GI50 (HOP-18) was > 625 µM (inactive) and the GI50 (HOP-62) was > 625 µM (inactive). The GI50 (HOP-92) was > 625 µM (inactive), the GI50 (HT-29) was > 625 µM (inactive) and the GI50 (IGROV-1) was > 625 µM (inactive). The GI50 (KM-20L2) was > 625 µM (inactive), the GI50 (KM12) was > 625 µM (inactive) and the GI50 (LOX IMVI) was > 625 µM (inactive). The GI50 (M19-MEL) was > 625 µM (inactive), the GI50 (MCF7) was > 625 µM (inactive) and the GI50 (NCI-H226) was > 625 µM (inactive). For the same compound, the GI50 (NCI-H460) was > 625 µM (inactive), the GI50 (NCI/ADR-RES) was > 625 µM (inactive) and the GI50 (OVCAR-3) was > 625 µM (inactive). The GI50 (OVCAR-4) was > 625 µM (inactive), the GI50 (OVCAR-8) was > 625 µM (inactive) and the GI50 (RPMI-8226) was > 625 µM (inactive). For the same compound, the GI50 (SF-268) was > 625 µM (inactive), the GI50 (SF-295) was > 625 µM (inactive) and the GI50 (SF-539) was > 625 µM (inactive). The GI50 (SK-MEL-2) was > 625 µM (inactive), the GI50 (SK-MEL-5) was > 625 µM (inactive) and the GI50 (SK-OV-3) was > 625 µM (inactive). The GI50 (SN12C) was > 625 µM (inactive), the GI50 (SNB-19) was > 625 µM (inactive) and the GI50 (SNB-75) was > 625 µM (inactive). For the same compound, the GI50 (SNB-78) was > 625 µM (inactive), the GI50 (SW-620) was > 625 µM (inactive) and the GI50 (UACC-62) was > 625 µM (inactive). The GI50 (UO-31) was > 625 µM (inactive).
`CC(C)Cc1ccc(C(C)C(=O)N2CCN(/C=C/c3ccccc3)CC2)cc1` (stereo unspecified) was tested, and the GI50 (A498) was 16.4 µM (inactive), the GI50 (A549) was 11.5 µM (inactive) and the GI50 (CCRF-CEM) was 13 µM (inactive). For the same compound, the GI50 (COLO 205) was 15.4 µM (inactive), the GI50 (DLD-1) was 13.7 µM (inactive) and the GI50 (DMS-114) was 10.8 µM (inactive). For the same compound, the GI50 (DMS-273) was 11.4 µM (inactive), the GI50 (EKVX) was 15.8 µM (inactive) and the GI50 (HCC 2998) was 17.9 µM (inactive). The GI50 (HCT-116) was 13.4 µM (inactive), the GI50 (HCT-15) was 13.8 µM and the GI50 (HL-60) was 3.94 µM (inactive). For the same compound, the GI50 (HOP-18) was 21.5 µM (inactive), the GI50 (HOP-62) was 15.8 µM (inactive) and the GI50 (HOP-92) was 13.1 µM (inactive). For the same compound, the GI50 (HT-29) was 14.7 µM (inactive), the GI50 (IGROV-1) was 15.1 µM (inactive) and the GI50 (K562) was 5.58 µM (inactive). For the same compound, the GI50 (KM-20L2) was 15.5 µM (inactive), the GI50 (KM12) was 15.5 µM (inactive) and the GI50 (LOX IMVI) was 18.7 µM (inactive). The GI50 (M19-MEL) was 15.7 µM (inactive), the GI50 (MCF7) was 16 µM (inactive) and the GI50 (MOLT-4) was 6.15 µM (inactive). The GI50 (Malme-3M) was 16.3 µM (inactive), the GI50 (NCI-H226) was 12.6 µM (inactive) and the GI50 (NCI-H23) was 13.2 µM (inactive). For the same compound, the GI50 (NCI-H460) was 16.1 µM (inactive), the GI50 (NCI-H522) was 11.6 µM (inactive) and the GI50 (NCI/ADR-RES) was 13.1 µM (inactive). The GI50 (OVCAR-3) was 12.9 µM (inactive), the GI50 (OVCAR-4) was 11.9 µM (inactive) and the GI50 (OVCAR-5) was 13.9 µM (inactive). For the same compound, the GI50 (OVCAR-8) was 14.5 µM (inactive), the GI50 (RPMI-8226) was 5.04 µM (inactive) and the GI50 (RXF 393) was 14.1 µM (inactive). The GI50 (SF-268) was 16.3 µM (inactive), the GI50 (SF-295) was 15.9 µM (inactive) and the GI50 (SF-539) was 15.2 µM (inactive). For the same compound, the GI50 (SK-MEL-28) was 17.7 µM (inactive), the GI50 (SK-MEL-2) was 13.6 µM (inactive) and the GI50 (SK-MEL-5) was 12.1 µM (inactive). For the same compound, the GI50 (SK-OV-3) was 16.6 µM (inactive), the GI50 (SN12C) was 15.8 µM (inactive) and the GI50 (SNB-19) was 2.79 µM (inactive). For the same compound, the GI50 (SNB-75) was 14 µM (inactive), the GI50 (SNB-78) was 25.1 µM (inactive) and the GI50 (SW-620) was 15.6 µM (inactive). For the same compound, the GI50 (U-251) was 12.9 µM (inactive), the GI50 (UACC-257) was 17.3 µM (inactive) and the GI50 (UACC-62) was 13.4 µM (inactive). For the same compound, the GI50 (UO-31) was 10.5 µM (inactive) and the GI50 (XF498) was 13.8 µM (inactive).
`CCc1ccc(NCc2cc(OC)c(OC)c(OC)c2)cc1` was tested, and the GI50 (ACHN) was 3.51 µM (inactive), the GI50 (BT-549) was < 0.01 µM (active) and the GI50 (CCRF-CEM) was 0.158 µM (active). The GI50 (DLD-1) was 0.592 µM (active), the GI50 (DMS-114) was 0.586 µM (active) and the GI50 (DU-145) was 0.399 µM (active). For the same compound, the GI50 (EKVX) was 4.95 µM (inactive), the GI50 (HCT-116) was 0.122 µM (active) and the GI50 (HCT-15) was 0.0847 µM. The GI50 (HL-60) was 0.0603 µM (active), the GI50 (HOP-62) was 0.366 µM (active) and the GI50 (HOP-92) was 1.09 µM (active). For the same compound, the GI50 (HT-29) was 0.105 µM (active), the GI50 (K562) was 0.0728 µM (active) and the GI50 (KM-20L2) was 0.388 µM (active). For the same compound, the GI50 (KM12) was 0.0537 µM (active), the GI50 (M19-MEL) was 0.579 µM (active) and the GI50 (MOLT-4) was 0.159 µM (active). For the same compound, the GI50 (Malme-3M) was 0.256 µM (active), the GI50 (NCI-H226) was 4.65 µM (inactive) and the GI50 (NCI-H23) was 0.532 µM (active). The GI50 (NCI-H522) was 0.109 µM (active), the GI50 (NCI/ADR-RES) was < 0.0416 µM (active) and the GI50 (OVCAR-3) was 0.123 µM (active). The GI50 (OVCAR-4) was 26.7 µM (inactive), the GI50 (OVCAR-5) was 4.9 µM (inactive) and the GI50 (PC-3) was 0.186 µM (active). The GI50 (RPMI-8226) was 0.303 µM (active), the GI50 (RXF 393) was 0.224 µM (active) and the GI50 (SF-295) was 0.109 µM (active). The GI50 (SNB-19) was 0.902 µM (active), the GI50 (UACC-257) was 17.2 µM (inactive) and the GI50 (XF498) was 1.69 µM (inactive).
